The nature of the series: Human HepG2 cell viability assay in 384 well format. It is filed as toxicity, cell-based. Also noted: dose 125 nL, time 70.5 hour; cytotoxicity at 70.5 h: concentration not given beside the values. The note with it: HepG2 cells, read-out: Inhibition.
For `O=C(Nc1cc(CCC2CCN(CCO)CC2)ccn1)c1ccccn1`, the cytotoxicity at 70.5 h is 45.9%.
As for `CNC(=O)c1sc2ccccc2c1CC1CCCN1Cc1cnc(C)s1` (stereo not drawn), the cytotoxicity at 70.5 h is -10.5%.
To `CCCC(=O)N1CCCC(C(=O)c2cnn(-c3ccc(F)cc3)c2N)C1` (stereo not drawn) belongs -4.03%; to `Cc1cc(C)nc(N2CCOC(c3cc(CCO)[nH]n3)C2)n1` (stereo not drawn), -8.46%.
To `Cc1nc(NCc2nonc2C)cc(C(C)Cn2nc(C)c(C)c2C)n1` (stereo not drawn) belongs -7.72%; to `Cc1nc(NCc2ccccc2)cc(C(C)Cn2nc(C)c(C)c2C)n1` (stereo not drawn), 3.51%.
To `CCCn1nc(C)c(C(=O)N(C)[C@@H]2CC[C@@H](N3CCCC3)[C@@H]2O)c1C` belongs -5.14%; to `NC(=O)C1(c2cnccn2)CCCN1C(=O)Cc1ccsc1` (stereo not drawn), -5.34%; to `Cc1nc2ccc(Cl)cn2c1CN1CCN(S(=O)(=O)N2CCCC2)CC1`, -4.72%.
`CN(C)c1cc(C2CCN(C(=O)c3cnn(C)c3)CC2)ccn1`: the cytotoxicity at 70.5 h was -4.9%.
To `c1cnc(C2CCCN(Cc3ccsc3)C2)cn1` (stereo not drawn) belongs -6.09%; to `CC(=O)NCc1cncc(C2CCCN2C2CCOCC2)n1` (stereo not drawn), -5.7%; to `CC(=O)N1CCCC(c2nnc3n2CCN(C(=O)C2CCCCC2)C3)C1` (stereo not drawn), -8.2%.
To `CCn1c(C)nc2cc(NC(=O)C3CN(C(C)=O)C3)ccc21` belongs -5.1%; to `Cc1ncc(-c2ccncc2)c(C2CCN(C(=O)c3ccno3)CC2)n1`, -7.69%.
To `CS(=O)(=O)c1cncnc1C1CCCN(C(=O)Nc2ccccc2F)C1` (stereo not drawn) belongs -11.6%; to `Nc1nc(N)c2c(n1)OC1(CCN(Cc3nccs3)C1)C2` (stereo not drawn), -6.73%.
On to `Nc1nc(N)c2c(n1)OC1(COCCN(Cc3nccs3)C1)C2` (stereo not drawn), for which the cytotoxicity at 70.5 h was -10.4%.
In the case of `O=C(O)c1ccc(=O)n(CC(c2ccc(F)cc2)N2CCCCCC2)c1` (stereo not drawn), the cytotoxicity at 70.5 h was -7.77%.
On to `Cc1oc2c(c1C(=O)N1CC[C@H](O)[C@]3(CCCO3)C1)CCCC2`, for which the cytotoxicity at 70.5 h is -5.7%.
The same measure for `O=C(c1cncs1)N1CCOC(c2cc(CCO)[nH]n2)C1` (stereo not drawn): -7.42%; for `CNC(=O)C1(CCCc2cnccn2)CCN1CCc1ccccc1` (stereo not drawn): -2.58%.
Regarding `Cc1cc(C(=O)N(C)C)nc(C2(C)CCCN2c2ccccc2)n1` (stereo not drawn), the cytotoxicity at 70.5 h is -2.68%.
To `CN(C)C(=O)C1(c2cnccn2)CCCN1C(=O)Cc1ccsc1` (stereo not drawn) belongs -5.5%; to `Cc1nc(NCCO)cc(C(C)Cn2nc(C)c(C)c2C)n1` (stereo not drawn), -3.69%.
The same measure for `CN(C)C(=O)C1(c2cnccn2)CCCN1C(=O)Cc1ccccc1` (stereo not drawn): -5.41%; for `Cn1nccc1C(=O)N1CCC(c2nnsc2S(C)(=O)=O)CC1`: -5.74%.
The same measure for `O=C(CN1CCC2(CC1)NC(=O)c1cc(Br)ccc1N2)NC1CC1`: -1.52%; for `O=C1NC2(CCCN(C(=O)CCn3cncn3)C2)Oc2ccccc21` (stereo not drawn): -4.04%; for `COc1ccc(C(C)NCc2scnc2C)cc1Cn1cccn1` (stereo not drawn): 0.409%.
Regarding `O=C(c1cc(Cl)c[nH]1)N(CCCO)Cc1cccnc1`, the cytotoxicity at 70.5 h was -8.59%.
`Cc1cc(CC(=O)N2CCc3cc(Br)sc3C2)n[nH]1`: the cytotoxicity at 70.5 h came to 12.5%.
Take `CC(Cn1cccn1)NCc1cccc(C#N)c1` (stereo not drawn): the cytotoxicity at 70.5 h was -3.1%.
As to `COCC(=O)Nc1ccnc(OCCN(C)C)c1`, the cytotoxicity at 70.5 h came to 4.63%.
To `CCOc1ccc(N(CCC#N)C(=O)c2ccnc(SC)c2)cc1` belongs 9.66%; to `O=S(=O)(Nc1ccc(N2CCOCC2)cc1)c1cccc(F)c1`, -1.37%.
The same measure for `NC(=O)CN(CC(N)=O)Cc1cccc(Oc2ccccc2)c1`: 7.82%; for `Cc1csc(N2CCCN(C(=O)c3nccnc3N)CC2)n1`: -0.698%; for `COc1cc(CNc2cnn(C(C)(C)C)c(=O)c2Cl)ccn1`: 1.57%.
The same measure for `CCC(=O)N(CC(N)=O)Cc1cccc(Oc2ccccc2)c1`: 0.0156%; for `COC(C)C(=O)N(CC(N)=O)Cc1cccc(Oc2ccccc2)c1` (stereo not drawn): -2.39%.
Turning to `Cc1ccc(C(C)NC(=O)N2CCN(C(=O)CC(F)(F)F)CC2)o1` (stereo not drawn), the cytotoxicity at 70.5 h was -3.77%.
To `Cc1cnn(CC2CCN(CC(O)c3ccccc3)CC2)c1` (stereo not drawn) belongs 13.9%; to `Cc1cnn(CC2CCN(CC(O)COc3ccccc3)CC2)c1` (stereo not drawn), 4.78%.
For the compound `Cc1cnn(CC2CCN(CC(O)c3ccc(F)cc3)CC2)c1` (stereo not drawn), the cytotoxicity at 70.5 h is -0.648%.
The same measure for `Cc1cnn(CC2CCN(CC(O)c3ccccc3Cl)CC2)c1` (stereo not drawn): -3.1%; for `CCS(=O)(=O)NCCNc1c(C#N)cnc2c(F)cc(F)cc12`: -0.0012%.
To `CN(C)C(=O)c1cccc(NC(=O)Cc2cc(F)ccc2F)n1` belongs 1.76%; to `N#CCCCS(=O)(=O)NC(=O)c1ccccc1F`, -0.732%; to `CCc1ccccc1C(=O)NS(=O)(=O)CCCC#N`, 10.5%.
For the compound `CCC(CC)(CNC(C)=O)NC(C)c1ccccc1` (stereo not drawn), the cytotoxicity at 70.5 h was determined as 3%.
To `CCC(CC)(CN)NC(C)c1ccccc1` (stereo not drawn) belongs -7.08%; to `CCOc1cccnc1C(=O)N1CCCN(c2nc(C)cs2)CC1`, -3.42%.
The same measure for `COc1cc(CNC(C)c2nnc3n2CCC3)cc(OC)c1` (stereo not drawn): -9.55%; for `CCCN1CCN(C(=O)c2cccnc2)CC1`: -14.6%.
Regarding `CC(C)C(NC(=O)c1nc(N2CCOCC2)ncc1Cl)c1cccs1` (stereo not drawn), the cytotoxicity at 70.5 h was -9.67%.
`CC(C)C(NC(=O)c1ccc(N2CCOCC2)nc1)c1cccs1` (stereo not drawn): the cytotoxicity at 70.5 h was -9.4%.
As for `O=C(Nc1c(N2CCCC2)cccc1N1CCCC1)c1cnccn1`, the cytotoxicity at 70.5 h was -14.4%.
The same measure for `O=C(CCn1cncn1)NCC1CCS(=O)(=O)C1` (stereo not drawn): -12.4%.
With `CC(Sc1nncn1C)C(=O)NCCCOc1ccc(F)cc1` (stereo not drawn), the cytotoxicity at 70.5 h was -22.5%.
`N#Cc1ccccc1OCCN1CCCCC1C(=O)N1CCOCC1` (stereo not drawn): the cytotoxicity at 70.5 h came out at 7.77%.
As to `O=C1OCCN1CCSc1nnnn1CC(F)(F)F`, the cytotoxicity at 70.5 h was -5.39%.
Regarding `CCCNC(=O)C[S+]([O-])Cc1csc(C2CCCCC2)n1` (stereo not drawn), the cytotoxicity at 70.5 h is -10.9%.
The same measure for `CC(C)c1nc2n(n1)CC(Nc1ncnc3c1CCC3)CC2` (stereo not drawn): -13.9%; for `CCN(CC)c1ncc(Cl)c(C(=O)NC2CCc3nccn3C2)n1` (stereo not drawn): -13.5%; for `Cn1c(CO)cnc1SC(C(N)=O)c1ccccc1` (stereo not drawn): -15.2%.
The same measure for `Cn1c(CO)cnc1SC(C(=O)NC1CC1)c1ccccc1` (stereo not drawn): -8.64%; for `O=C(NCc1ccc(CN2CCCC2)cc1)NC1(CO)CCCC1`: 2.2%; for `CCN(CC)c1ncc(Cl)c(C(=O)NC2CC2)n1`: -0.0542%.
The same measure for `CCC(Sc1ncc(CO)n1C)c1ccccc1` (stereo not drawn): -10%; for `Cc1cc(N2CCN(Cc3cn(C)nc3C)CC2)cc(C2CCNC2)n1` (stereo not drawn): -5.44%; for `COc1cc2c(cc1CNC(Cc1cccs1)c1nccs1)OCCO2` (stereo not drawn): -3.19%.
On to `c1coc(CN2CCC(c3ccc4c(c3)OCO4)CC2)c1`, for which the cytotoxicity at 70.5 h is -3.77%.

For the origin of these results see ChEMBL document CHEMBL3507680, “University of Dundee, Gates Library screen for HepG2 cell viability”.
